Common to all, as to assay: growth of human tumour cells (NCI), 48 h
The subject of experiment [1] is SK-MEL-5 melanoma.
Experiment [2] has as its system M14 melanoma.
Experiment [3] relates to NCI-H460 lung.
The test system of experiment [4] is UACC-62 melanoma.
Experiment [5] relates to DU-145 prostate.
The subject of experiment [6] is COLO 205 colon.
Experiment [7] has as its system BT-549 breast.
Experiment [8] has as its system NCI-H23 lung.
In experiment [9] the test system is HS 578T breast.
For experiment [10], the system named is SR leukemia.

“And” between values parts separate entries of the source, which are not always exact repeats. Identical values can stand only once.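 Values below derive from 48-hour exposures of cells grown in 96-well plates, with endpoints linearly interpolated between the two concentrations bracketing the appropriate inhibition level. GI50 marks 50% less growth. TGI marks complete inhibition of growth.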

Turning to `O=C(O)[C@@H]1C[C@@H](O)CN1`, the TGI in experiment [1], in experiment [2], in experiment [3], in experiment [4], in experiment [5] and in experiment [6] was more than 100 µM in each case. Besides, the TGI in experiment [7], in [8], in experiment [9] and in [10] was more than 100 µM each time.
Regarding `C=CC1=C(C)C2=NC1=CC1=NC(=C(CC)/C1=C/O)C=C1C=C3C(=O)C(C(=O)OC)C(=C4NC(=C2)C(C)C4CCC(=O)OC/C=C(\C)CCCC(C)CCCC(C)CCCC(C)C)C3=N1` (centres undefined) (tested in a mixture with another compound), the TGI in experiment [1], in experiment [2], in [3], in [4], in experiment [5] and in experiment [6] was more than 100 µM in each case. Further, the TGI in experiment [7], in experiment [8], in [9] and in experiment [10] was more than 100 µM each time.
Turning to `N#Cc1cccc(Nc2nccc(-c3cnn4ncccc34)n2)c1`, the GI50 is 0.00618 µM in experiment [1]; 0.00525 µM in experiment [2]; 0.00837 µM in experiment [3]; 0.00396 µM in experiment [4]; 0.00661 µM in experiment [5]; 0.00295 µM in experiment [6]. Moreover, the GI50 in experiment [7] was 0.00559 µM; in [8], 0.00686 µM; in experiment [9], 0.00482 µM; in experiment [10], 0.0025 µM. In addition, the TGI in experiment [1] is 0.018 µM; in [2], 0.0125 µM; in experiment [3] it was more than 25 µM; in experiment [4] it was 0.0116 µM; in [5] it was 3.46 µM; in experiment [6], 0.00663 µM. For the same compound, the TGI in [7] was found to be 0.017 µM; in experiment [8], 0.0239 µM; in [9] it was 0.021 µM.
Regarding `O=C(Oc1ccc([N+](=O)[O-])cc1)N1CCC(C(O)(c2ccc3c(c2)OCO3)c2ccc3c(c2)OCO3)CC1`, the GI50 in experiment [1], in [2], in experiment [3], in experiment [4], in experiment [5] and in experiment [6] was more than 100 µM throughout. The GI50 in experiment [7] is more than 100 µM; in [8], more than 100 µM; in [9] it was more than 80.4 µM; in experiment [10] it was more than 100 µM. Moreover, the TGI in [1], in experiment [2], in experiment [3], in experiment [4], in experiment [5] and in experiment [6] was more than 100 µM throughout. In addition, the TGI in [7], in experiment [8], in experiment [9] and in experiment [10] was more than 100 µM throughout.
For `O=C1C(Nc2ccccn2)=C(I)C(=O)c2ncccc21`, the GI50 in [1] is 1.11 µM; in experiment [2], 1.18 µM; in experiment [3] it was 0.295 µM; in experiment [4], 1.28 µM; in [5], 0.367 µM; in [6], 1.9 µM. In addition, the GI50 in experiment [7] is 1.54 µM; in experiment [8], 0.584 µM; in experiment [9] it was 1.2 µM; in experiment [10], 0.274 µM. In addition, the TGI in [1] came out at 2.31 µM; in experiment [2], 2.6 µM; in [3], 1.1 µM; in [4] it was 2.67 µM; in experiment [5], 1.42 µM; in experiment [6], 3.68 µM. In addition, the TGI in experiment [7] worked out at 3.14 µM; in experiment [8], 2.61 µM; in experiment [9], 4.9 µM; in experiment [10], 10 µM.
`C=CCSc1n[nH]c(-c2cccs2)n1`: the GI50 in experiment [1], in [2], in [3], in experiment [4], in experiment [5] and in experiment [6] was more than 100 µM in each case. For the same compound, the GI50 in experiment [7], in experiment [8], in experiment [9] and in [10] was more than 100 µM in each case. Besides, the TGI in experiment [1], in experiment [2], in experiment [3], in experiment [4], in [5] and in experiment [6] was more than 100 µM throughout. Further, the TGI in experiment [7], in [8], in [9] and in experiment [10] was more than 100 µM each time.
Consider `CN(C)CCCC1(c2ccc(F)cc2)OCc2cc(-c3ccc4cc[nH]c4c3)ccc21` (centres undefined), for which the GI50 was 1.81 µM in experiment [1]; 1.88 µM in experiment [2]; 1.79 µM in experiment [3]; 1.85 µM in [4]; 1.9 µM in experiment [5]; 2.11 µM in experiment [6]. Also, the GI50 is 2.35 µM in experiment [7], 1.97 µM in experiment [8], 1.8 µM in [9] and 2.41 µM in experiment [10]. For the same compound, the TGI is 3.25 µM in experiment [1]; 3.82 µM in experiment [2]; 3.49 µM in experiment [3]; 3.77 µM in experiment [4]; 3.46 µM in [5]; 4.68 µM in [6]. Further, the TGI in experiment [7] stood at 7.62 µM; in experiment [8] it was 4.11 µM; in experiment [9], 4.27 µM; in experiment [10], 5.41 µM.
Turning to `Cc1cc(NC(=O)CCc2ccc(N3C(N)=NC(N)=NC3(C)C)cc2)ccc1S(=O)(=O)F`, the GI50 in experiment [1] is 0.125 µM; in [2], 0.737 µM; in [3], less than 0.0246 µM; in [4] it was 0.14 µM; in experiment [5], 2.63 µM; in experiment [6], 0.358 µM. Moreover, the GI50 in [7] was 6.53 µM; in experiment [8], 1.76 µM; in [9] it was 28.3 µM; in experiment [10] it was more than 100 µM. For the same compound, the TGI in experiment [1] was 19.1 µM; in [2], more than 100 µM; in [3], 36.1 µM; in experiment [4], more than 100 µM; in experiment [5], more than 100 µM; in [6] it was more than 100 µM. In addition, the TGI was more than 91.9 µM in experiment [7], more than 100 µM in experiment [8], more than 100 µM in experiment [9] and more than 100 µM in experiment [10].
With `CC1=COC2=C(C)C(=O)C(=O)c3c(C)ccc1c32`, the TGI in experiment [1] amounted to 3.26 µM; in experiment [2], 13.8 µM; in experiment [3], 15.4 µM; in [4], 11.9 µM; in [5], 20.3 µM; in experiment [6], 8.91 µM. The TGI in experiment [7] was 38.3 µM; in experiment [8], 14.3 µM; in experiment [9], more than 95.7 µM; in [10], more than 42.6 µM.
Take `O=[N+]([O-])c1ccc(N(CCO)CCO)c2c1no[n+]2[O-]`: the GI50 in [1] is 1.09 µM; in experiment [2] it was 1.22 µM; in experiment [3], 0.645 µM; in experiment [4], 1.24 µM; in [5] it was 1.68 µM; in experiment [6], 0.852 µM. Further, the GI50 in experiment [7] is 1.18 µM; in experiment [8], 1.23 µM; in experiment [9] it was 0.705 µM; in [10], 0.215 µM. For the same compound, the TGI amounted to 2.31 µM in experiment [1]; 2.76 µM in [2]; 2.72 µM in experiment [3]; 3.56 µM in [4]; 5.64 µM in [5]; 2.22 µM in experiment [6]. In addition, the TGI in experiment [7] amounted to 4 µM; in experiment [8], 4.2 µM; in experiment [9], 4.29 µM; in experiment [10], 0.899 µM.
With `Cc1ccnc2c1NC(=O)c1cccnc1N2C1CC1`, the GI50 in [1], in experiment [2], in experiment [3], in [4], in experiment [5] and in experiment [6] was more than 100 µM each time. Further, the GI50 in experiment [7], in experiment [8], in experiment [9] and in experiment [10] was more than 100 µM throughout. The TGI in experiment [1], in [2], in [3], in experiment [4], in [5] and in experiment [6] was more than 100 µM in each case. Moreover, the TGI in experiment [7], in [8], in [9] and in [10] was more than 100 µM throughout.
With `C#C[C@]1(O)CC[C@H]2[C@@H]3CC=C4c5nc(Nc6ccc(OC)cc6OC)sc5CC[C@]4(C)[C@H]3CC[C@@]21C`, the GI50 in experiment [1] is 1.73 µM; in experiment [2] it was 1.37 µM; in experiment [3], 2.65 µM; in [4], 1.76 µM; in experiment [5], 2.32 µM; in experiment [6], 2.14 µM. Further, the GI50 in experiment [7] is 0.656 µM; in experiment [8], 2.18 µM; in [9], 0.411 µM; in [10], 0.523 µM. Also, the TGI amounted to 3.26 µM in experiment [1]; 3.53 µM in experiment [2]; 10.3 µM in experiment [3]; 5.04 µM in [4]; 10.8 µM in [5]; 4.78 µM in experiment [6]. Further, the TGI turned out to be 4.77 µM in experiment [7], 12 µM in experiment [8], 2.36 µM in experiment [9] and 11.2 µM in [10].
For the compound `C/C=C(/C)C(=O)OC1C=C(CO)C(=O)C(OC(=O)/C(C)=C\C)C1C(C)C` (centres undefined), the GI50 is 1.33 µM in experiment [1]; 0.795 µM in [2]; 1.25 µM in experiment [3]; 0.644 µM in [4]; 0.618 µM in experiment [5]; 0.823 µM in experiment [6]. The GI50 is 1.45 µM in [7], 1.5 µM in [8], 2.35 µM in [9] and 0.315 µM in experiment [10]. The TGI in [1] is 2.66 µM; in experiment [2] it was 2.26 µM; in experiment [3], 2.94 µM; in [4], 1.98 µM; in experiment [5], 1.95 µM; in [6], 2.75 µM. Further, the TGI in [7] stood at 2.88 µM; in experiment [8], 3.23 µM; in experiment [9], 6.29 µM; in [10], 3.69 µM.
Regarding `CCOC(=O)C(=Cc1ccc(Br)cc1)C(=O)OCC`, the GI50 in [1] is 1.65 µM; in experiment [2] it was 1.8 µM; in experiment [3], 2.37 µM; in experiment [4] it was 1.39 µM; in [5] it was 1.68 µM; in experiment [6], 1.89 µM. In addition, the GI50 in experiment [7] is 1.49 µM; in experiment [8], 2.32 µM; in experiment [9] it was 4.03 µM; in experiment [10], 2.41 µM. Besides, the TGI in experiment [1] amounted to 3.12 µM; in [2], 3.68 µM; in experiment [3], 5.73 µM; in experiment [4], 3.29 µM; in experiment [5], 3.07 µM; in experiment [6], 3.94 µM. The TGI in experiment [7] is 3.11 µM; in experiment [8] it was 5.7 µM; in [9], more than 19.6 µM; in [10], more than 23.1 µM.
As for `NC(N)=NC(N)=NCCc1ccccc1`, the GI50 in experiment [1] is 87.7 µM and 73.3 µM; in [2], more than 100 µM; in experiment [3] it was more than 100 µM; in [4], more than 100 µM; in [5] it was more than 100 µM; in [6], more than 100 µM. Besides, the GI50 was > 100 µM and 32.8 µM in [7]; 50.5 µM and 34.7 µM in experiment [8]; more than 100 µM in [9]; 8.44 µM in experiment [10]. Moreover, the TGI in experiment [1], in experiment [2], in experiment [3], in [4], in experiment [5] and in [6] was more than 100 µM throughout. Moreover, the TGI in experiment [7], in experiment [8], in experiment [9] and in [10] was more than 100 µM in each case.
As for `O=c1cccc(C#CCCCCOC2CCCO2)o1` (centres undefined), the GI50 in experiment [1] is 7.47 µM; in experiment [2], 9.49 µM; in [3], 6.81 µM; in [4] it was 15.9 µM; in [5], 10.3 µM; in experiment [6], 16.1 µM. Besides, the GI50 in experiment [7] was 3.35 µM; in [8], 5 µM; in experiment [9], 7.46 µM; in experiment [10] it was 20.4 µM. In addition, the TGI was more than 16.4 µM in experiment [1]; more than 27.9 µM in [2]; more than 100 µM in experiment [3]; more than 56.8 µM in [4]; more than 80 µM in experiment [5]; more than 31.1 µM in experiment [6]. Also, the TGI is 26.4 µM in [7], 14.9 µM in experiment [8], 29.2 µM in experiment [9] and more than 100 µM in experiment [10].
